Values after ≈ are worked out from the molar mass of the structure shown.
Test system: herpes simplex virus type 2 (HSV-2)
Assay: In vitro HSV-2 bioassay: virucidal plaque assay (HEP-2 cells)
Format: cell-based, HSV-2 strain 333
Conditions: for MIC: Human alphaherpesvirus 2, 0.5 h, Table 4 run, 30 min at 25° C., upper limit, dilutions to 1:12800, read-out: MIC (lowest concentration producing a 3-log reduction in virus titer); for virucidal activity against HSV-2 in words: in vitro bioassay
Protocol: Evidence of the efficacy of the virucides of the invention in vitro has been obtained from bioassay using HSV-2, using a standard assay procedure. Serial dilutions of the compounds were tested for their ability to prevent plaque formation by a stock virus suspension. Reduction of plaque titer by test compounds as compared to mock treated controls was indicative of virucidal activity. […] These represent the upper limit for the drug concentration, since dilutions were not carried beyond 1:6400 and in some cases 1:12800.
Cell Culture. Cell cultures used for the propagation and titration of HSV-2 were the human diploid lung embryonic line MRC-5 and the human malignant epitheloid cell line HEP-2 respectively. Stock monolayer cultures of both cell lines were propagated in Dulbecco's Modified Eagle's medium (DME) supplemented with 10% (V/V) calf serum. Spinner cultures for mass production of HEP-2 cells were grown in Joklik's medium supplemented with 10% (V/V) calf serum and 1% (W/V) pluronic acid. Monolayer cultures of HEP-2 cells for plaque or virucidal assay were seeded into 60 mm dishes in DME supplemented with 10% calf serum and antibiotics. Stock cultures were maintained in antibiotic free medium.
Herpes simplex virus, type 2 (HSV-2) strain 333 was obtained from Dr. John Hughes of the Dept. of Medical Microbiology, College of Medicine, The Ohio State University. Stocks of HSV-2 were prepared in the human diploid embryonic lung cell line, MRC-5. Confluent MRC-5 monolayer cultures in T-75 plastic flasks were washed one time with Hank's and Balanced Salt solution (HBSS) and infected with 0.5 ml of HSV-2, strain 333 stock. Virus was adsorbed for 1 hour at 37° C. Then the culture was refed with 15 ml of DME supplemented with 1% (V/V) calf serum. Virus was harvested 48 hours later when cytopathology was complete. Cultures were frozen and thawed rapidly three times to release cell associated virus, clarified by centrifugation at 10,000×g for 15 minutes at 4° C., aliquoted into 5 ml lots and frozen at -70° C. One lot was taken for virus titration.
HSV-2 was titrated by plaque assay in HEP-2 cells under a semi-solid methyl cellulose overlay. Tenfold serial dilutions of virus were prepared in HBSS and 0.3 ml aliquots of each dilution inoculated onto triplicate HEP-2 cell monolayers in 60 mm plastic petri dishes. Adsorption of virus was for 1 hour at 37° C. Plates were then overlayed with 5 ml of a 1:1 mixture of 2×DME supplemented with 2% (V/V) calf serum and 3% (W/V) methyl cellulose to give a final 1×DME supplemented with 1% calf serum and 1.5% methylcellulose. Infected plates were incubated at 37° C. in a humidified 10% CO2 atmosphere for 48 hours. Virus plaques were visualized by staining with crystal violet and counted under a dissecting microscope. Virus titers were calculated from the plaque numbers by averaging the plaque count and multiplying by 3.3 (0.3 ml plates).
The following procedure was employed to assay virucidal activity in various test samples. Compounds were received as a solution in DMSO and were serially diluted in HBSS as described for each experiment. For the test, 1 ml of each dilution was mixed with 1 ml of a stock virus suspension diluted to approximately 9×10^3 plaque forming units (P.F.U.)/ml. This test mixture was incubated at 25° C. for 30 minutes, then inoculated onto a cell culture (HEP-2) for plaque assay as described previously. Mock treated (virus plus HBSS) controls were included with each test. Any reduction of plaque titer by test compounds as compared to the mock treated control was indicative of virucidal activity.
Samples from RP-HPLC fractionation of the CLOH, produced according to Example 2, as well as purified samples of palmitic, myristic and oleic acids and Vitamin D2, were tested for HSV-2 bioactivity. […] Pure oleic acid was not active in this assay, nor were palmitic and myristic acids and Vitamin D2. […]

[1] = Table 3, dilution 1:10, control titer 4.5 × 10^3
[2] = Table 3, dilution 1:400, TNTC = too numerous to count
[3] = Table 3, dilution 1:800, TNTC = too numerous to count
[4] = Table 3, dilution 1:1600, TNTC = too numerous to count
[5] = Table 3, dilution 1:3200, TNTC = too numerous to count
[6] = Table 3, dilution 1:6400, TNTC = too numerous to count
[7] = Table 3, dilution 1:12800, TNTC = too numerous to count
[8] = Table 1, dilution 1:10, TNTC = too numerous to count
[9] = Table 1, dilution 1:100, TNTC = too numerous to count
[10] = Table 1, dilution 1:200, TNTC = too numerous to count
[11] = Table 1, dilution 1:400, TNTC = too numerous to count
[12] = Table 1, dilution 1:800, TNTC = too numerous to count
[13] = Table 1, dilution 1:1600, TNTC = too numerous to count
[14] = Table 1, dilution 1:3200, TNTC = too numerous to count
[15] = Table 1, dilution 1:6400, TNTC = too numerous to count

| SMILES | plaque count (Table 3, dilution 1:10) | titer [1] | plaque count (Table 3, dilution 1:100) | titer (Table 3, dilution 1:100) | titer (Table 3, dilution 1:400) | plaque count [2] | titer (Table 3, dilution 1:800) | plaque count [3] | titer (Table 3, dilution 1:1600) | plaque count [4] | titer (Table 3, dilution 1:3200) | plaque count [5] | titer (Table 3, dilution 1:6400) | plaque count [6] | titer (Table 3, dilution 1:12800) | plaque count [7] | plaque count [8] | plaque count [9] | plaque count [10] | plaque count [11] | other results |
| --- | --- | --- | --- | --- | --- | --- | --- | --- | --- | --- | --- | --- | --- | --- | --- | --- | --- | --- | --- | --- | --- |
| CCC=CCC=CCC=CCC=CCC=CCC=CCCC(=O)OC [DHA--ME, docasahexaenoic acid, methyl ester] | 95 | 3.1 × 10^2 | 293 | 9.7 × 10^2 | TNTC | TNTC | TNTC | TNTC | TNTC | TNTC | TNTC | TNTC | TNTC | TNTC | TNTC | TNTC | – | – | – | – | – |
| CC/C=C\C/C=C\C/C=C\C/C=C\C/C=C\CCCC(=O)O [EPA, eicosapentaenoic acid] | 0 | 0 | 0.5 | 1.7 × 10^0 | 1.7 × 10^0 | 0.5 | 1.7 × 10^0 | 0.5 | 1.7 × 10^0 | 0.5 | 1.7 × 10^0 | 0.5 | 1.7 × 10^0 | 0.5 | 1.7 × 10^0 | 0.5 | – | – | – | – | MIC: 0.37 µg/mL (≈ 1.22 µM) |
| CCC=CCC=CCC=CCC=CCC=CCCCC(=O)OC [EPA--ME, eicosapentaenoic acid, methyl ester] | 0 | 0 | 2.5 | 8.3 × 10^0 | 2.5 × 10^1 | 7.5 | 4.5 × 10^1 | 13.5 | 6.4 × 10^1 | 19.5 | 1.4 × 10^2 | 42.5 | 1.2 × 10^2 | 36.5 | 2.2 × 10^2 | 66 | – | – | – | – | MIC: 540 µg/mL (≈ 1710 µM) |
| CCCCCCCCCCCCCC(=O)O [Myristic acid, reference compound] | – | – | – | – | – | – | – | – | – | – | – | – | – | – | – | – | TNTC | TNTC | TNTC | TNTC | plaque count [12]: TNTC; plaque count [13]: TNTC; plaque count [14]: TNTC; plaque count [15]: TNTC; virucidal activity against HSV-2 in words: not active |
| CCCCCCCCCCCCCCCC(=O)O [Palmitic acid, reference compound] | – | – | – | – | – | – | – | – | – | – | – | – | – | – | – | – | TNTC | TNTC | TNTC | TNTC | plaque count [12]: TNTC; plaque count [13]: TNTC; plaque count [14]: TNTC; plaque count [15]: TNTC; virucidal activity against HSV-2 in words: not active |
| C=C1CC[C@H](O)C/C1=C/C=C1\CCC[C@]2(C)[C@@H]([C@H](C)/C=C/[C@H](C)C(C)C)CC[C@@H]12 [Vitamin D2, reference compound] | – | – | – | – | – | – | – | – | – | – | – | – | – | – | – | – | TNTC | TNTC | TNTC | TNTC | plaque count [12]: TNTC; plaque count [13]: TNTC; plaque count [14]: TNTC; plaque count [15]: TNTC; virucidal activity against HSV-2 in words: not active |

— patent US4513008A, “Virucidal compositions and therapy” (The Vinoxen Company, Inc., priority 1982, dated 1985)
